From US11576859B2, “Gastric residence systems for sustained release of therapeutic agents and methods of use thereof” (Lyndra Therapeutics, Inc., priority 2015, dated 2023)
Values after ≈ are worked out from the molar mass of the structure shown.

What was measured:
[1] = oral, once daily; cited from earlier work
[2] = Rosuvastatin forced degradation in solution and in polycaprolactone formulation; type: physicochemical
Experimental: SOLUTION CONDITIONS: For acid degradation studies, rosuvastatin was dissolved to 1 mg/mL in 0.1M HCl and heated for the specified time and temperature. For alkaline degradation, rosuvastatin was dissolved to 1 mg/mL in 0.1M NaOH and heated to 80° C. for 1 h. For oxidative degradation, rosuvastatin was dissolved to 1 mg/mL in 30% hydrogen peroxide and heated to 80° C. for 30 min. For stability over time, rosuvastatin was dissolved to 1 mg/mL in water at room temperature for 5 days. For thermal degradation studies in solution, rosuvastatin was dissolved to 1 mg/mL in dimethylsulfoxide and heated to the specified temperature for 2 h. In each case, samples of the solution were diluted in methanol and analyzed by LCMS to determine the ratio of intact drug to degraded drug.
POLYMER CONDITIONS: For thermal degradation studies in formulation, rosuvastatin was blended with PCL at a ratio of 25:75 drug:PCL and the blend was heated to the specified temperature for 2 h. The drug-polymer blend was then dissolved in dichloromethane and this solution was added to excess methanol to precipitate PCL. Samples of the methanol solution were then analyzed by LCMS to determine the ratio of intact drug to degraded drug.

[3] = PCL/SGF partition coefficient; type: physicochemical; conditions: 5:1 PCL diol (MW 530):ethyl acetate versus FaSSGF
Experimental: Partitioning of active pharmaceutical ingredient (API) between the structural polymer, polycaprolactone (PCL), and fasted state simulated gastric fluid (FaSSGF) is of interest for predicting API release rate from PCL-based formulations. To measure the PCL-SGF partition coefficient of an API, a concentrated stock solution of API was added to a mixture of 1 mL FaSSGF and 1 mL of 5:1 PCL diol (MW 530):ethyl acetate. The sample was vortexed and centrifuged at 10000 rpm for 5 minutes. The SGF phase was analyzed by HPLC to measure drug concentration. The PCL phase was diluted in methanol prior to quantification on HPLC.

[4] = method not given; cited from earlier work
[5] = Rosuvastatin forced degradation in solution and in polycaprolactone formulation; type: physicochemical; conditions: Heat: 1 mg/mL drug in DMSO, 1 h
[6] = Time dependent thermal processing stability of aripiprazole at 100 °C; conditions: for Visual Observation / Impurity % 0.86 RRT: extruded at 100 °C
physchem [7] = conditions: water, thermodynamic from solid
From the text: First, various surfactants were screened for their ability to improve aripiprazole solubility in FaSSGF and water. Equilibrium solubility of aripiprazole in the presence of surfactants was estimated in water and FaSSGF by the procedure described in Example 50.

physchem [8] = conditions: thermodynamic from solid
[9] = Aripiprazole stability versus processing temperature
[10] = extruded at 90 °C, same formulation
[11] = extruded at 100 °C, same formulation
[12] = extruded at 120 °C, same formulation
[13] = extruded at 140 °C, same formulation
[14] = extruded at 160 °C, same formulation
[15] = extruded at 180 °C, same formulation

**Q.** Which results are given for CC(C)c1nc(N(C)S(C)(=O)=O)nc(-c2ccc(F)cc2)c1/C=C/[C@@H](O)C[C@@H](O)CC(=O)O [Rosuvastatin]?
**A.** elimination half-life [1]: approximately 19 hours; acid stability in PCL formulation versus in solution ([2]; FIG. 20): protects the drug from acid degradation; thermal stability in PCL formulation versus in solution ([2]; FIG. 21): protects the drug from degradation at elevated temperatures

**Q.** For Ivermectin, which “LogP (PCL/SGF)” value [3] is on record?
**A.** 2.60

**Q.** What about the “PCL/SGF Partition Coefficient” value [3] of the same compound?
**A.** 398

**Q.** What about the “LogP (Octanol/water)” value [4] of the same compound?
**A.** 4.1

**Q.** Which results are given for CC12CC3CC(C)(C1)CC(N)(C3)C2 [Memantine]?
**A.** LogP (PCL/SGF) [3]: −0.56; PCL/SGF Partition Coefficient [3]: 0.28

**Q.** What does the source list for CC(C)c1nc(N(C)S(C)(=O)=O)nc(-c2ccc(F)cc2)c1/C=C/[C@@H](O)C[C@@H](O)CC(=O)[O-].CC(C)c1nc(N(C)S(C)(=O)=O)nc(-c2ccc(F)cc2)c1/C=C/[C@@H](O)C[C@@H](O)CC(=O)[O-].[Ca+2] [Rosuvastatin calcium]?
**A.** % Intact drug ([5]; 100 C.): 86%; % Intact drug ([5]; 120 C.): >95%; % Intact drug ([2]; Acid: 0.1N HCl, 37 C., 2 d): 66%; % Intact drug ([2]; Acid: 0.1N HCl, 37 C., overnight, 1 mg/mL): 87%; % Intact drug ([2]; Acid: 0.1N HCl, 50 C., 4 h): 93%; % Intact drug ([2]; Acid: 0.1N HCl, 50 C., overnight): 58%; % Intact drug ([2]; Acid: 0.1N HCl, 80 C., 1 h): ~100%; % Intact drug ([2]; Base: 0.1M NaOH, 80 C., 1 h): ~100%; % Intact drug ([2]; Heat: 1 mg/mL drug in DMSO, 100 C., 2 h): 86%; % Intact drug ([2]; Heat: 1 mg/mL drug in DMSO, 120 C., 2 h): 77%; % Intact drug ([2]; Oxidation: 30% H2O2, 80 C., 30 min): ~100%; % Intact drug ([2]; Polymer-blended: 25% drug in polycaprolactone, 100 C., 2 h): >95%; % Intact drug ([2]; Polymer-blended: 25% drug in polycaprolactone, 120 C., 2 h): >95%; % Intact drug ([2]; Time: 1 mg/mL drug in water, room temperature, 5 days): 62%

**Q.** With Cc1nc2n(c(=O)c1CCN1CCC(c3noc4cc(F)ccc34)CC1)CCCC2 [Risperidone] as the compound, how does the “PCL/SGF Partition Coefficient” value [3] read?
**A.** 0.03

**Q.** Which “LogP (PCL/SGF)” value [3] does the source give for Doxycycline Hyclate here?
**A.** 0.27

**Q.** And the “PCL/SGF Partition Coefficient” value [3]?
**A.** 1.88

**Q.** What about the “LogP (Octanol/water)” value [4] of the same compound?
**A.** −1.9

**Q.** What does the source list for O=C1CCc2ccc(OCCCCN3CCN(c4cccc(Cl)c4Cl)CC3)cc2N1 [Aripiprazole]?
**A.** degradation at 100 °C at all the timepoints ([6]; 5 to 30 minutes extrusion, same formulation): no significant degradation; Visual Observation ([6]; 5 min, 75 rpm, 20% aripiprazole/10% Kolliphor P407/10% Eudragit EPO/80 K PCL formulation): White colored extrudate; Impurity % 0.86 RRT ([6]; 5 min, same formulation): 0.08%; Impurity % 0.86 RRT ([6]; 10 min, same formulation): 0.08%; Visual Observation ([6]; 10 min, same formulation): White colored extrudate; Impurity % 0.86 RRT ([6]; 15 min, same formulation): 0.08%; Visual Observation ([6]; 15 min, same formulation): White colored extrudate; Impurity % 0.86 RRT ([6]; 20 min, same formulation): 0.08%; Visual Observation ([6]; 20 min, same formulation): White colored extrudate; Impurity % 0.86 RRT ([6]; 30 min, same formulation): 0.08%; Visual Observation ([6]; 30 min, same formulation): White colored extrudate; solubility (physchem [7]): ~0.456 µg/mL (≈ 1.02 µM); LogP (PCL/SGF) [3]: 1.67; PCL/SGF Partition Coefficient [3]: 49; solubility (physchem [8]; pH 1.06, simulated gastric fluid): 500 µg/mL (≈ 1120 µM); solubility (physchem [8]; pH 3, aqueous buffer): 120 µg/mL (≈ 268 µM); solubility (physchem [8]; pH 4.65, aqueous buffer): 110 µg/mL (≈ 245 µM); LogP (Octanol/water) [4]: 5.59; Visual Observation ([9]; extruded at 90 °C, 10 min batch mixing 75 rpm, 20% Aripiprazole/10% Kolliphor P407/10% Eudragit EPO/80 K PCL formulation): White; % Impurity Total [9, 10]: <0.05%; % Impurity at RRT 0.64 [9, 10]: <0.05%; % Impurity Total [9, 11]: <0.05%; % Impurity at RRT 0.64 [9, 11]: <0.05%; Visual Observation [9, 11]: White; % Impurity Total [9, 12]: <0.05%; % Impurity at RRT 0.64 [9, 12]: <0.05%; Visual Observation [9, 12]: White; % Impurity Total [9, 13]: 0.14%; % Impurity at RRT 0.64 [9, 13]: <0.05%; % Impurity at RRT 0.86 [9, 13]: 0.14%; Visual Observation [9, 13]: Slight pink; % Impurity Total [9, 14]: 0.21%; % Impurity at RRT 0.22 [9, 14]: 0.08%; % Impurity at RRT 0.42 [9, 14]: 0.08%; % Impurity at RRT 0.64 [9, 14]: 0.05%; Visual Observation [9, 14]: Brown; % Impurity Total [9, 15]: 0.60%; % Impurity at RRT 0.22 [9, 15]: 0.28%; % Impurity at RRT 0.42 [9, 15]: 0.12%; % Impurity at RRT 0.64 [9, 15]: 0.07%; % Impurity at RRT 0.71 [9, 15]: <0.05%; % Impurity at RRT 0.81 [9, 15]: 0.05%; % Impurity at RRT 0.93 [9, 15]: 0.08%; Visual Observation [9, 15]: Brown
